Results published in publication PMC7577153, “Identification of Small-Molecule Inhibitors Targeting Porphyromonas gingivalis Interspecies Adherence and Determination of Their In Vitro and In Vivo Efficacies” (Antimicrobial Agents and Chemotherapy, 2020).
Where two headings read alike, the source gives them in different places. Marks after values point to notes of the source that are not given here.

How the values were obtained:
[1] = system: TIGK cells; assay: total cellular ATP (CellTiterGlo); format: cell-based, human; details: 18 h, versus negative controls
Protocol: (§1) To determine the metabolic activity of cells, the total cellular ATP level was measured in cell culture samples using the CellTiterGlo reagent (Promega Inc. Madison, WI). Cells were grown as described above in the presence of the desired concentration of compounds. The spent medium was decanted, and cells were washed three times with PBS and subsequently incubated with 100 μl of the CellTiterGlo substrate. To facilitate the reaction, plates were incubated at room temperature for 2 min with shaking and for an additional 10 min without shaking. Total light production was measured using a Victor 3 multilabel plate reader (PerkinElmer).

[2] = system: J774A.1 cells; assay: LDH release (CytoTox 96); format: cell-based, mouse; details: 18 h
Protocol: The CytoTox 96 nonradioactive cytotoxicity assay (Promega Inc. Madison, WI) was used to determine extracellular lactate dehydrogenase activity (LDH) in TIGK, J774A.1, and HL60 cell cultures treated with the test compounds. […] After an 18-h incubation, the cell supernatant was collected by centrifugation at 250 × g for 4 min, and 50 μl of cell free supernatant was transferred into wells of a fresh 96-well microtiter plate. Subsequently, 50 μl of the LDH substrate was added in each well and incubated at room temperature for 30 min. Reactions were stopped by adding 50 μl of the stop solution according to the manufacturer’s protocol, and the endpoint was measured by determining optical density at 490 nm. Cells treated with culture medium containing 0.1% DMSO or with medium alone served as negative controls, and cells incubated with 15-μl lysis buffer (supplied by manufacturer) for 1 h served as a positive control for lysis. All samples were tested in triplicate.

[3] = system: TIGK cells; details: 18 h;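 also: flow cytometry of cells stained with PE annexin V plus Sytox green, with untreated or 0.1% DMSO-exposed cells as negative controls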
Protocol: (§2) The mouse macrophage cell line J774A.1 was grown in Dulbecco’s modified Eagle medium (DMEM) (Thermo Fisher Scientific, Waltham, MA) supplemented with 4.5 g/ml glucose, 10% fetal bovine serum (FBS), and 100 U/ml penicillin-streptomycin (Sigma-Aldrich, St. Louis, MO). HL60 (ATCC CCL240) cells were obtained from the American Type Culture Collection and cultured in Iscove’s modified Dulbecco’s medium (Sigma-Aldrich) supplemented with 20% fetal bovine serum (FBS) (Sigma-Aldrich).
(§3) The apoptotic activity of the compounds was determined using the phycoerythrin (PE) annexin V/dead cell apoptosis kit with Sytox green for flow cytometry (Invitrogen, Carlsbad, CA). Cells were grown in 12-well flat-bottom microtiter plates at an initial density 2 × 10^5 cells in 1.5-ml medium per well for 24 h. Following the incubation period, spent medium was replaced with fresh medium containing the desired concentration of the test compound and incubated for another 18 h. After trypsinization, cells were harvested by centrifuging at 250 × g for 4 min, and the cell pellet was suspended in 100 μl of binding buffer supplemented with 1 μl Sytox and 5 μl annexin V, followed by incubation at 37°C for 15 min. Samples were then diluted by adding 400-μl binding buffer, and flow cytometry was performed using a FACScalibur flow cytometer (Becton, Dickinson, Franklin Lakes, NJ), measuring the fluorescence emissions at 530 nm and 575 nm.

[4] = system: J774A.1 cells; details: 18 h
Protocol: as §2, §3

[5] = system: P. gingivalis virulence; assay: murine model of periodontitis (alveolar bone loss); format: in vivo, BALB/c/ByJ mice; details: for alveolar bone loss relative to sham-infected mice / alveolar bone loss versus infected untreated mice: mice infected with S. gordonii and P. gingivalis, compound 40 μM; for alveolar bone loss versus infected untreated mice: P < 0.001
Protocol: The in vivo activity of compounds N7, N17, and V8 was determined using a murine model of periodontitis as described by Deap et al. ([16]). […] Therefore, P. gingivalis virulence was assessed by alveolar bone loss, which was determined by measuring the distance from the alveolar bone crest (ABC) to the cemento enamel junction (CEJ).
The protocol used in this study (protocol 16486) was approved by the Institutional Animal Care and Use Committee at the University of Louisville under federal guidelines for the use and care of laboratory animals. Ten-week-old BALB/c/ByJ specific-pathogen-free mice were obtained from Jackson Laboratory (Bar Harbor, ME) and housed in the University of Louisville Research Resource Center animal facility. During the entire course of the study, mice were fed with Lab Diet 5001 (Purina Mills, LLC, Gray Summit, MO).
Oral infection of the mice was carried out essentially as described by Deap et al. ([18]). Prior to infection, mice were subjected to a combined antibiotic treatment for 10 days by providing animals with water ad libitum containing 800 μg/ml sulfamethoxazole (MP Biomedical, Solon, OH) and 400 μg/ml trimethoprim (Sigma, St. Louis, MO). Four days after the conclusion of the antibiotic treatment, mice were infected by oral gavage with 10^9 CFU of S. gordonii suspended in 2% carboxymethylcellulose (CMC; MP Biomedical) in sterile PBS using a 2.25-mm feeding needle (Popper and Son, Inc., New Hyde Park, NY). Infections were conducted every other day for a period of 10 days. Subsequently, mice were infected with 10^9 CFU P. gingivalis suspended in 2% CMC in PBS alone or in 2% CMC in PBS containing the small-molecule inhibitors every other day for 10 days. After the last infection with P. gingivalis, the mice were rested for 47 days and then euthanized by carbon dioxide asphyxiation.
To obtain the mouse skulls, the heads were removed and autoclaved for 15 min to remove flesh and musculature. The defleshed skulls were then immersed in 3% hydrogen peroxide overnight at room temperature to remove any remaining flesh. The skulls were submerged in deionized water to remove residual hydrogen peroxide, soaked in 1% bleach solution for 30 sec, sonicated at 14 V for 1 min, and washed again with deionized water. Samples were brushed using toothpaste, sonicated again in 1% bleach for an additional 30 sec at 14 V, and washed with water. The cleaned skulls were stained by immersion in 1% methylene blue for 15 sec, followed by washing with water until the excess dye was removed.
To measure alveolar bone loss, a dissecting microscope fitted with a video imaging marker measurement system (model VIA-170K; Fryer) was used. Bone loss was determined by measuring the distance between the alveolar bone crest (ABC) and cemento-enamel junction (CEJ) at eight sites on the buccal sides of both left and right maxillary molars. […] Data were analyzed using one-way analysis of variance (ANOVA; Graph Pad Prism, La Jolla, CA), and a pairwise parametric analysis of variance using a Bonferroni multiple-comparison posttest was used to determine the statistical difference among the individual mouse groups. A P value of ≤0.05 was considered statistically significant.

[6] = system: HL60 cells; assay: total cellular ATP (CellTiterGlo); format: cell-based, human; details: HL-60 cells, 5, 20 and 40 μM, 18 h
Protocol: as §1

[7] = system: J774A.1 cells; assay: total cellular ATP (CellTiterGlo); format: cell-based, mouse; details: J774A.1 cells, 5, 20 and 40 μM, 18 h
Protocol: as §1

Row | Compound | cellular ATP levels [1] | Early apoptosis (%) ([3]; 5 μM) | Late apoptosis/necrosis (%) ([3]; 5 μM) | Live cells (%) ([3]; 5 μM) | Early apoptosis (%) ([3]; 20 μM) | Late apoptosis/necrosis (%) ([3]; 20 μM) | Live cells (%) ([3]; 20 μM) | Early apoptosis (%) ([3]; 40 μM) | Late apoptosis/necrosis (%) ([3]; 40 μM) | Live cells (%) ([3]; 40 μM) | Early apoptosis (%) ([4]; 5 μM) | Late apoptosis/necrosis (%) ([4]; 5 μM) | Live cells (%) ([4]; 5 μM) | Early apoptosis (%) ([4]; 20 μM) | Late apoptosis/necrosis (%) ([4]; 20 μM) | Live cells (%) ([4]; 20 μM) | Late apoptosis/necrosis (%) ([4]; 40 μM) | Live cells (%) ([4]; 40 μM) | alveolar bone loss relative to sham-infected mice [5] | alveolar bone loss versus infected untreated mice [5] | further results
1 | Cl.N=c1n(CCN2CCCCC2)c2ccccc2n1CC(O)COc1ccc(Cl)cc1 (stereo not shown) [N7, 1-(4-chlorophenoxy)-3-{2-imino-3-[2-(piperidin-1-yl)ethyl]-2,3-dihydro-1H-1,3-benzodiazol-1-yl}propan-2-ol hydrochloride] | significantly reduced cellular ATP levels | 2.4 | 8.3 | 86.8 | 1.0 | 14.9* % | 74.5 | 5.9 | 40.7* % | 48.3 | 2.5 | 5.5 | 83.9 | 16.9 | 46.6 | 33.4 | 38.0 | 36.2 | modest increase in bone loss relative to the sham-infected group | significant reduction in alveolar bone loss | LDH release ([2]; J774A.1 cells, 20 μM and 40 μM): significant increases; Early apoptosis (%) ([4]; 40 μM): 24.9%; overt signs of distress or toxicity in treated mice ([5]; transient exposure (∼20 min) during infection): did not exhibit any overt signs of distress or toxicity
2 | O=C(Nc1ccccc1O)c1cccc(N2C(=O)c3ccc(C(=O)Nc4ccccc4O)cc3C2=O)c1 [N17, N-(2-hydroxyphenyl)-2-{3-[(2-hydroxyphenyl)carbamoyl]phenyl}-1,3-dioxo-2,3-dihydro-1H-isoindole-5-carboxamide] | did not significantly differ from the negative controls | 2.9 | 4.2 | 90.7 | 2.4 | 3.6% | 92.4 | 1.5 | 5.1% | 91.6 | 1.0 | 6.1 | 87.8 | 1.0 | 6.9 | 85.3 | 6.6 | 87.3 | not significantly different from sham-infected animals | significant reduction in alveolar bone loss | ATP levels [6]: no significant effect; LDH release ([2]; J774A.1 cells, 5, 20 and 40 μM): no significant effect; Early apoptosis (%) ([4]; 40 μM): 1.2%; ATP levels [7]: no significant effect
3 | Cc1cc([C@H]2CCCN(CC(=O)NC3(C#N)CCCC3)C2)n[nH]1 [V8, N-(1-cyanocyclopentyl)-2-[3-(5-methyl-1H-pyrazol-3-yl)piperidin-1-yl] acetamide] | did not significantly differ from the negative controls | 3.1 | 4.2 | 91.6 | 2.1 | 3.5% | 92.8 | 2.4 | 3.4% | 92.8 | 1.1 | 8.3 | 85.1 | 0.9 | 8.0 | 83.4 | 9.1 | 84.3 | modest increase in bone loss relative to the sham-infected group | significant reduction in alveolar bone loss | ATP levels [6]: no significant effect; LDH release ([2]; J774A.1 cells, 5, 20 and 40 μM): no significant effect; ATP levels [7]: no significant effect
